From BindingDB's records for doi:10.1021/acs.jmedchem.8b00890 (Beijing Institute of Pharmacology and Toxicology, 2018)
Where a SMILES comes first, the peptide text is derived from it. [ ]: non-standard residue; d: D form. The star is where a group is joined. Palmitoyl = CCCCCCCCCCCCCCCC(=O)*; βAla = NCCC(=O)O

What was measured:
[1] = Inhibition of HIV1 envelope glycoprotein-mediated cell-cell fusion between HL2/3 cells stably expressing HIV Gag, Env, Tat, Rev and Nef proteins and human TZM-bl cells stably expressing high CD4 and CCR5 incubated for 6 to 8 hrs by luciferase reporter assay
[2] = Inhibition of Ebola virus Sudan envelope glycoprotein-mediated cell entry in human HuH7 cells treated with 30 mins pre-treated pseudovirus/compopund mixture and measured after 72 hrs by luciferase reporter assay

Structure (SMILES): CCCCCCCCCCCCCCCC(=O)NCCCC[C@H](NC(=O)CCNC(=O)[C@H](CCCCN)NC(=O)[C@H](CCCCN)NC(=O)[C@H](CCC(N)=O)NC(=O)[C@@H](NC(=O)[C@H](CCC(=O)O)NC(=O)[C@H](CCC(=O)O)NC(=O)[C@@H](NC(=O)[C@H](CCCCN)NC(=O)[C@H](CCCCN)NC(=O)[C@H](CCC(N)=O)NC(=O)[C@@H](NC(=O)[C@H](CCC(=O)O)NC(=O)[C@H](CCC(=O)O)NC(=O)[C@@H](NC(=O)[C@H](CCCCN)NC(=O)[C@H](CCCCN)NC(=O)[C@H](CCC(N)=O)NC(=O)[C@@H](NC(=O)[C@H](CCC(=O)O)NC(=O)[C@H](CCC(=O)O)NC(=O)[C@@H](NC(=O)[C@H](CCCCN)NC(=O)[C@H](CCCCN)NC(=O)[C@H](CCC(N)=O)NC(=O)[C@@H](NC(=O)[C@H](CCC(=O)O)NC(=O)[C@H](CCC(=O)O)NC(=O)[C@@H](NC(=O)[C@H](CCCCN)NC(=O)[C@H](CCCCN)NC(=O)[C@H](CCC(N)=O)NC(=O)[C@@H](NC(=O)[C@H](CCC(=O)O)NC(=O)[C@H](CCC(=O)O)NC(=O)[C@@H](NC(C)=O)[C@@H](C)CC)[C@@H](C)CC)[C@@H](C)CC)[C@@H](C)CC)[C@@H](C)CC)[C@@H](C)CC)[C@@H](C)CC)[C@@H](C)CC)[C@@H](C)CC)[C@@H](C)CC)C(N)=O (Ac-IEEIQKKIEEIQKKIEEIQKKIEEIQKKIEEIQKK[βAla]K(Palmitoyl)-NH2)
- EC50 [1]: 3630 nM
- EC50 [2]: 1020 nM
